Assay results reported in patent publication US9718816B2, “1-phenoxy-3-(alkylamino)-propan-2-ol derivatives as CARM1 inhibitors and uses thereof” (Epizyme, Inc., priority 2013, dated 2017).

Molecular target: T1, CARM1 (Homo sapiens, UniProt Q86X55)
T1 construct: Flag-CARM1-His; made in house; host or cells: HEK 293F cells infected with recombinant baculovirus (pFastBacMam)
T1 sequence (Q86X55 1-585 isoform Q86X55-1): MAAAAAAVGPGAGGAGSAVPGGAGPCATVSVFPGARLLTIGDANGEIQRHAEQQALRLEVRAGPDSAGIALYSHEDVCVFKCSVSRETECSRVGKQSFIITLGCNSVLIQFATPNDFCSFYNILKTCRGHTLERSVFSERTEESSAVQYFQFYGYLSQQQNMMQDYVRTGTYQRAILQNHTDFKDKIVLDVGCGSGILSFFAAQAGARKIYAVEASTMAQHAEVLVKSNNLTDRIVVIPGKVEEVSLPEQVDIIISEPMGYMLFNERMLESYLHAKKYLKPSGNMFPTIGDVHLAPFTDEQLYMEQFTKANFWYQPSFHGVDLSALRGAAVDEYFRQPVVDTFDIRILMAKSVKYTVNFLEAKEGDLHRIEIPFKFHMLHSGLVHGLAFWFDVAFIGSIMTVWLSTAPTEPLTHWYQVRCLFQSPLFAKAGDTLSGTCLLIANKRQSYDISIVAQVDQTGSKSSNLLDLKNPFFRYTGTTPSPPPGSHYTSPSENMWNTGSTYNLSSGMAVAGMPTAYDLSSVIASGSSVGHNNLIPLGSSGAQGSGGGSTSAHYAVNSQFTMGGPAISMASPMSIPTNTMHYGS
Assay: CARM1 enzyme assay on peptide substrate (3H-SAM Flashplate)
Format: biochemical
Conditions: CARM1 0.25 nM, 3H-SAM 30 nM, peptide 250 nM, 30 min preincubation; read-out: Biochem IC50
Excerpt: S-adenosylmethionine (SAM), S-adenosylhomocysteine (SAH), bicine, Tween20, dimethylsulfoxide (DMSO), bovine skin gelatin (BSG), sodium butyrate and Tris(2-carboxyethyl)phosphine hydrochloride solution (TCEP) were purchased from Sigma-Aldrich at the highest level of purity possible. ^3H-SAM was purchase from American Radiolabeled Chemicals with a specific activity of 80 Ci/mmol. 384-well streptavidin Flashplates were purchased from PerkinElmer.
Peptide representative of human histone H3 residues 16-30 was synthesized with an N-terminal linker-affinity tag motif and a C-terminal amide cap by 21^St Century Biochemicals. The peptide was purified by high-performance liquid chromatography (HPLC) to greater than 95% purity and confirmed by liquid chromatography mass spectrometry (LC-MS). The sequence was Biot-Ahx-[…]-amide and contained a monomethylated arginine at position 26 (SEQ ID NO.:1).
Human CARM1 (PRMT4) (NM_199141.1) transcript clone was amplified from an HEK 293 cDNA library, incorporating a flanking 5′ sequence encoding a FLAG tag ([…]) (SEQ ID NO.:2) fused directly to Ala 2 of CARM1 and 3′ sequence encoding a hexa His sequence ([…]) (SEQ ID NO.:3) fused directly to Ser 608. The gene sequence encoding isoform1 containing a deletion of amino acids 539-561 was amplified subsequently and subcloned into pFastBacMam (Viva Biotech). Protein Expression
Recombinant baculovirus were generated according to Bac-to-Bac kit instructions (Life Technologies). Protein over-expression was accomplished by infecting exponentially growing HEK 293F cell culture at 1.3×10^6 cell/ml with virus (MOI=10) in the presence of 8 mM sodium butyrate. Infections were carried out at 37° C. for 48 hours, harvested by centrifugation, and stored at −80° C. for purification.
Column was washed with 500 mM NaCl in buffer A and Flag-CARM1-His was eluted with 200 ug/ml FLAG peptide in buffer A. Pooled fractions were dialyzed in 20 mM Tris, 150 mM NaCl, 5% glycerol and 1 mM DTT, pH 7.8. The purity of recovered protein was 94.
General Procedure for CARM1 Enzyme Assays on Peptide Substrates
The assays were all performed in a buffer consisting of 20 mM Bicine (pH=7.6), 1 mM TCEP, 0.005% BSG, and 0.002% Tween 20, prepared on the day of use. Compounds in 100% DMSO (1 ul) were spotted into a polypropylene 384-well V-bottom plates (Greiner) using a Platemate Plus outfitted with a 384-channel head (Thermo Scientific). DMSO (1 ul) was added to Columns 11, 12, 23, 24, rows A-H for the maximum signal control and 1 ul of SAH, a known product and inhibitor of CARM1, was added to columns 11, 12, 23, 24, rows I-P for the minimum signal control. A cocktail (40 ul) containing the CARM1 enzyme was added by Multidrop Combi (Thermo-Fisher). The compounds were allowed to incubate with CARM1 for 30 min at room temperature, then a cocktail (10 ul) containing ^3H-SAM and peptide was added to initiate the reaction (final volume=51 ul). The final concentrations of the components were as follows: CARM1 was 0.25 nM, ^3H-SAM was 30 nM, peptide was 250 nM, SAH in the minimum signal control wells was 1 mM, and the DMSO concentration was 2%. The assays were stopped by the addition of non-radiolabeled SAM (10 ul) to a final concentration of 300 uM, which dilutes the ^3H-SAM to a level where its incorporation into the peptide substrate is no longer detectable. 50 ul of the reaction in the 384-well polypropylene plate was then transferred to a 384-well Flashplate and the biotinylated peptides were allowed to bind to the streptavidin surface for at least 1 hour before being washed once with 0.1% Tween20 in a Biotek ELx405 plate washer. The plates were then read in a PerkinElmer TopCount plate reader to measure the quantity of ^3H-labeled peptide bound to the Flashplate surface, measured as disintegrations per minute (dpm) or alternatively, referred to as counts per minute (cpm). […]

Structure (SMILES)	IC50
CNCC(O)COc1cccc(-c2cc(NCc3nnn[nH]3)c3cnn(C(C)C)c3n2)c1 (centres unmarked) [Example 27-1]	< 100 nM
CNCC(O)COc1cccc(-c2cc(NCCCCCCNC(=O)c3ccn(C)n3)c3cnn(C(C)C)c3n2)c1 (centres unmarked) [Example 66-1]	100 to 1000 nM
CNCC(O)COc1cccc(-c2cc(NC(=O)NC3CCOCC3)c3cnn(C(C)C)c3n2)c1 (centres unmarked) [Example 2-1]	< 100 nM
CNCC(O)COc1cccc(-c2cc(NCc3cnn(C)c3C)c3cnn(C(C)C)c3n2)c1 (centres unmarked) [Example 46-1]	< 100 nM
CC(C)n1ncc2c(NC(=O)NC3CCOCC3)cc(-c3cccc(OCC(O)CN)c3)nc21 (centres unmarked) [Example 49-1]	100 to 1000 nM
CNCC(O)COc1cccc(-c2cc(NC(=O)NC)c3cnn(C(C)C)c3n2)c1 (centres unmarked) [Example 13-1]	< 100 nM
CNCC(O)COc1cccc(-c2cc(NCCNC(=O)c3ccn(C)n3)c3cnn(C(C)C)c3n2)c1 (centres unmarked) [Example 58-1]	100 to 1000 nM
CC(C)n1ncc2c(NCc3cccc(O)c3)cc(-c3cccc(OCC(O)CN)c3)nc21 (centres unmarked) [Example 35-1]	100 to 1000 nM
CNCC(O)COc1cccc(-c2cc(NCCCCCCN)c3cnn(C(C)C)c3n2)c1 (centres unmarked) [Example 43-1]	100 to 1000 nM
CNCC(O)COc1cccc(-c2cc(N3CCC(C(=O)OC)CC3)c3cnn(C(C)C)c3n2)c1 (centres unmarked) [Example 52-1]	< 100 nM
CC(C)n1ncc2c(NCc3cnc4ccccn34)cc(-c3cccc(OCC(O)CN)c3)nc21 (centres unmarked) [Example 50-1]	< 100 nM
CC(C)n1ncc2c(N3CCOCC3)cc(-c3cccc(OCC(O)CN)c3)nc21 (centres unmarked) [Example 11-1]	100 to 1000 nM
COc1nc(C)cc(C)c1CNc1cc(-c2cccc(OCC(O)CN)c2)nc2c1cnn2C(C)C (centres unmarked) [Example 55-1]	< 100 nM

Tested on: asymmetric di-methyl PABP1 in RKO cells
Assay: RKO methylation assay (In Cell Western, asymmetric di-methyl PABP1)
Format: cell-based
Conditions: Homo sapiens, 48 hours incubation, read-out: Cellular IC50
Excerpt: RKO adherent cells were purchased from ATCC (American Type Culture Collection), Manassas, Va., USA. DMEM/Glutamax medium, penicillin-streptomycin, heat inactivated fetal bovine serum, 0.05% trypsin and D-PBS were purchased from Life Technologies, Grand Island, N.Y., USA. Odyssey blocking buffer, 800CW goat anti-rabbit IgG (H+L) antibody, and Licor Odyssey infrared scanner were purchased from Licor Biosciences, Lincoln, Nebr., USA. Asymmetric di-methyl PABP1 antibody was purchased from Cell Signaling Technology, Danvers, Mass., USA. Methanol was purchased from VWR, Franklin, Mass., USA. 10% Tween 20 was purchased from KPL, Inc., Gaithersburg, Md., USA. Paraformaldehyde (PFA) was purchased from EM Sciences. DRAQ5 was purchased from Biostatus Limited, Leicestershire, UK. […]
Calculations. First, the ratio for each well was determined by:
Each plate included fourteen control wells of DMSO only treatment (minimum inhibition) as well as fourteen control wells for maximum inhibition treated with 20 μM of a reference compound. The average of the ratio values for each control type was calculated and used to determine the percent […] for each test well in the plate. […]
Percent inhibition was determined and IC50 curves were generated using triplicate wells per concentration of compound.

Structure (SMILES)	IC50
CNCC(O)COc1cc(OC)cc(-c2cc(N3CCOCC3)n3ncc(C4CC4)c3n2)c1 (centres unmarked) [Example 18-6]	5000 to 10000 nM
